Earlier results, collected in patent US20240108043A1, “NONNUTRITIVE SWEETENER COMPOSITIONS, METHODS OF MANUFACTURE AND USES THEREOF” (priority 2022, published 2024).
Where two headings read alike, the source gives them in different places. Blank lines part the entries; values can stand above or below the molecule they belong to.

Columns and labels:
[1] = for Sweetness intensity relative to sucrose: times the sweetness intensity of sucrose
[2] = in vivo
[3] = diabetic human subjects, daily 20 g for 14 days
[4] = system: TNF-Alpha and Interleukin 1-Beta; settings: concentration of 1 mM
[5] = not given; remark: listed apart in the source
[6] = 500 mg, two years, mild hypertension patients

Compound: O=C(CO)[C@H](O)[C@H](O)[C@H](O)CO [allulose, D-ribo-2-hexulose]
Sweetness intensity relative to sucrose [1]: approximately 0.7 times

Excreted through urine with molecular structure unchanged [2]: Approximately 90%
Compound: OC[C@@H](O)[C@@H](O)CO [erythritol, (2R,3S)-Butan-1,2,3,4-tetrol]
Sweetness, as sweet as sucrose ([1]; percent of sucrose sweetness): 60-70%
Sweetness intensity relative to sucrose [1]: 0.6-0.7 times
Effect on blood glucose insulin [3]: no effect

Compound: O=C(CO)[C@@H](O)[C@H](O)[C@H](O)CO [fructose, D-Fructose]
Sweetness intensity relative to sucrose [1]: approximately 1.7 times

Compound: OC[C@@H](O)[C@@H](O[C@@H]1O[C@H](CO)[C@H](O)[C@H](O)[C@H]1O)[C@H](O)[C@@H](O)CO [lactitol]
Incidence of gastrointestinal distress compared to equal doses of sucrose (doses of 30-40 grams): significantly (p<0.01) increased

Dose causing laxative affects (single bolus): greater than 20 grams
Compound: OC[C@@H](O)[C@@H](O)[C@H](O)[C@H](O)CO [mannitol]

Dose at which laxative affect is seen (men): 170 mg/kg
Dose at which laxative affect is seen (women): 240 mg/kg
Compound: OC[C@@H](O)[C@@H](O)[C@H](O)[C@@H](O)CO [sorbitol]

Compound: C=C1C[C@@]23CC[C@H]4[C@@](C)(CCC[C@@]4(C)C(=O)O)[C@@H]2CC[C@]1(O)C3 [steviol]
Endotoxin release of TNF-Alpha and Interleukin 1-Beta [4]: significantly suppressed

Compound: C=C1C[C@@]23CC[C@H]4[C@@](C)(CCC[C@@]4(C)C(=O)O[C@@H]4O[C@H](CO)[C@@H](O)[C@H](O)[C@H]4O)[C@@H]2CC[C@]1(O[C@@H]1O[C@H](CO)[C@@H](O)[C@H](O)[C@H]1O[C@@H]1O[C@H](CO)[C@@H](O)[C@H](O)[C@H]1O)C3 [stevioside]
Blood glucose ([5]; 200 mg, sixty healthy volunteers): effectively reduce blood glucose
Postprandial blood glucose levels ([5]; 1 gram vs 1 gram maize starch, type-2 diabetes patients, 30 and 240 minutes after a meal): reduced postprandial blood glucose levels
Diastolic and systolic blood pressure [6]: significantly reduced
Endotoxin release of TNF-Alpha and Interleukin 1-Beta [4]: significantly suppressed
